Measured values taken from patent publication US20260167638A1, “PHARMACEUTICAL COMPOUND, SALTS THEREOF, FORMULATIONS THEREOF, AND METHODS OF MAKING AND USING SAME” (Genentech, Inc., priority 2018, published 2026).
≈ marks a conversion by molar mass, not a printed value. Where “and” joins values, the source holds several entries; their conditions need not be identical. Equal values may be shown once. Each block holds one compound with its values, some of them ahead of it.

Columns and labels:
[1] = Dissolution and precipitation in pH 6.5 phosphate buffer at 37° C. containing HPMC; type: physicochemical; settings: aqueous buffer
Description: The inclusion of HPMC in the tablet of Example 16 was to maintain the supersaturation of Compound I API after its mono-tosylate salt dissolves. […]

[2] = Experimental determination of the pKa; type: physicochemical
[3] = Solubility in pure water at 25° C. with PXRD of solid residues; type: physicochemical; settings: for pH (24 hrs) / pH (1 hr): pH of solubility sample; for pH (24 hrs) / pH (1 hr) / S 24 hrs / S 1 hr: pure water, 25° C.; for pH (1 hr) / S 1 hr: one hour; for S 24 hrs: 24 hours equilibration
Description: Using a similar strategy as described above, these salts were prepared by evaporation from a solution of free base and acid in a solvent (e.g., methanol-dichloromethane 1:1, ethyl acetate-dichloromethane 1:2, isopropanol, and the like). If necessary, an amorphous salt produced in this way was crystallized by stirring the amorphous material in an appropriate solvent (e.g., ethyl acetate, acetonitrile, and the like).

[4] = Example 21 crossover pharmacokinetics of mono-tosylate and di-tosylate tablets in fasted dogs; type: in vivo, beagle dogs; settings: for Individual plasma concentration of Compound I: individual dogs 1-5; for Individual plasma concentration of Compound I / Mean plasma concentration of Compound I: phase 2, di-tosylate tablet 200 mg PO; for AUC0-last / AUC0-rt / Cmax / tmax: Example 21, fasted dogs, 200 mg tablet PO
Description: Pharmacokinetics parameters of formulations of Compound I and its salts in dogs were determined by orally administering a test formulation tablet at 200 mg of active (Compound I or salt) per dog.
Blood samples were taken at various times after administration, plasma prepared, and submitted to analysis for parent drug using a qualified LC-MS-MS assay. Pharmacokinetics parameters derived from the plasma analytical data were determined using non-compartmental analysis.
Pharmacokinetics of Compound I were determined in pentagastrin-pretreated male beagle dogs following a single oral (PO) administration at 200 mg/tablet per dog in a 2-phase crossover designed study, with a washout period of at least 7 days in between each phase. Five male, non-naive, purebred beagle dogs were used in each phase of the 2-phase crossover study. All dogs were pretreated with pentagastrin (6 μg/kg intramuscular administrations) approximately 30 minutes before test article administration.
Two tablet formulations (mono-tosylate and di-tosylate, as described above) of test article were assessed. Animals were fasted overnight prior to PO dosing through approximately 4 hours post-dose. The tablet was administered orally, followed by approximately 10 mL of reverse osmosis water. Phase 1 animals were given tablets containing Compound I mono-tosylate, and phase 2 animals were given tablets containing Compound I di-tosylate salt. Blood samples were collected pre-dose and at 0.25, 0.5. 1. 2, 4, 8, 24, 36, and 48 hours after the oral dose. Plasma was harvested, and the concentration of Compound I in each plasma sample was determined by an LC/MS/MS assay. The assay lower limit of quantitation was 20 ng/mL for Compound I. Mean Compound I concentrations measured in plasma were used to construct semi-logarithmic plasma concentration-time curves (FIG. 1). Pharmacokinetic analysis was performed using non-compartmental methods.

[5] = Water sorption / dynamic vapor sorption (DVS) hygroscopicity; type: physicochemical
Description: The pKa value of Compound I free base was calculated (ACD Labs pKa DB, v10.0) as 2.12±0.33. Therefore, Compound I free base was considered as a very weak base that could be protonated by strong acids. […] A sample of Compound I free base was analyzed by powder x-ray diffraction and found to be crystalline without any readily detectable amorphous content. […] (onset temperature).
The maximum water uptake for the amorphous salt was about 40% whereas the maximum water uptake for the crystalline di-hydrochloride salt was higher, with about 54% uptake.
The hygroscopic nature of the besylate salt was examined by dynamic vapor sorption analysis (DVS). […] Below 80% relative humidity not much water was adsorbed.

[6] = Thermal stability of salt; type: physicochemical
Description: It was produced in a crystalline form that was easy to dry, as the residual solvent content of the obtained sample was low. The particle size distribution and crystal habits found were acceptable.

[7] = Table 5: free base and crystalline salt forms
[8] = Table 4: free base and amorphous salt forms

Compound: Cn1cc(-c2cn(-c3ccc(OC(F)(F)F)cc3)c(=O)c3ncn(C)c23)cn1 [Compound I, 1-methyl-7-(1-methyl-1H-pyrazol-4-yl)-5-(4-(trifluoromethoxy)phenyl)-1,5-dihydro-4H-imidazo[4,5-c]pyridin-4-one]
solubility [1]: ~80 µg/mL (≈ 205 µM)
pKa [2]: 2.5
Solubility (24 hours) [3, 7]: 0.057 mg/mL
solubility at 24 h ([3]; water, 25 °C, water, thermodynamic from solid, Table 4: free base and amorphous salt forms): 57 µg/mL

Compound: Br.Br.Cn1cc(-c2cn(-c3ccc(OC(F)(F)F)cc3)c(=O)c3ncn(C)c23)cn1 [di-HBr crystalline]
Solubility (24 hours) [3, 7]: 0.48 mg/mL
pH (24 hrs) [3]: 1.6
pH (1 hr) [3]: 1.6
S 24 hrs [3]: 0.48 mg/mL
S 1 hr [3]: 0.54 mg/mL

Compound: Cl.Cl.Cn1cc(-c2cn(-c3ccc(OC(F)(F)F)cc3)c(=O)c3ncn(C)c23)cn1 [di-HCl crystalline]
Solubility (24 hours) [3, 7]: 0.76 mg/mL
pH (24 hrs) [3]: 1.5
pH (1 hr) [3]: 1.3
S 24 hrs [3]: 0.76 mg/mL
S 1 hr [3]: 1.14 mg/mL

Compound: Br.Cn1cc(-c2cn(-c3ccc(OC(F)(F)F)cc3)c(=O)c3ncn(C)c23)cn1 [mono-HBr amorphous]
Solubility (24 hours) [3, 8]: 0.62 mg/mL
pH (24 hrs) [3]: 1.6
S 24 hrs [3]: 0.62 mg/mL

Compound: Br.Cn1cc(-c2cn(-c3ccc(OC(F)(F)F)cc3)c(=O)c3ncn(C)c23)cn1 [mono-HBr crystalline]
pH (24 hrs) [3]: 1.9
S 24 hrs [3]: 0.31 mg/mL

Compound: Cl.Cn1cc(-c2cn(-c3ccc(OC(F)(F)F)cc3)c(=O)c3ncn(C)c23)cn1 [mono-HCl amorphous]
Solubility (24 hours) [3, 8]: 0.70 mg/mL
pH (24 hrs) [3]: 1.6
S 24 hrs [3]: 0.70 mg/mL

Compound: Cl.Cn1cc(-c2cn(-c3ccc(OC(F)(F)F)cc3)c(=O)c3ncn(C)c23)cn1 [mono-HCl crystalline]
pH (24 hrs) [3]: 1.6
S 24 hrs [3]: 0.42 mg/mL

Compound: Cn1cc(-c2cn(-c3ccc(OC(F)(F)F)cc3)c(=O)c3ncn(C)c23)cn1.O=[N+]([O-])O [mono-nitrate amorphous]
pH (24 hrs) [3]: 1.9
S 24 hrs [3]: 0.33 mg/mL

Compound: Cn1cc(-c2cn(-c3ccc(OC(F)(F)F)cc3)c(=O)c3ncn(C)c23)cn1.O=[N+]([O-])O [mono-nitrate crystalline]
pH (24 hrs) [3]: 1.8
pH (1 hr) [3]: 1.8
S 24 hrs [3]: 0.38 mg/mL
S 1 hr [3]: 0.42 mg/mL

Compound: Cn1cc(-c2cn(-c3ccc(OC(F)(F)F)cc3)c(=O)c3ncn(C)c23)cn1.O=S(=O)(O)O [mono-sulfate amorphous]
Solubility (24 hours) [3, 8]: 0.84 mg/mL
pH (24 hrs) [3]: 1.4
pH (1 hr) [3]: 1.2
S 24 hrs [3]: 0.84 mg/mL

More lines, main results first:

Mean plasma concentration of Compound I ([4]; 0.25 hours, mean, fasted dogs): 536 ng/mL
Mean plasma concentration of Compound I ([4]; 0.5 hours, mean, fasted dogs): 3760 ng/mL
Mean plasma concentration of Compound I ([4]; 1 hour, mean, fasted dogs): 7510 ng/mL
Mean plasma concentration of Compound I ([4]; 2 hours, mean, fasted dogs): 10400 ng/mL
Mean plasma concentration of Compound I ([4]; 4 hours, mean, fasted dogs): 9220 ng/mL
Mean plasma concentration of Compound I ([4]; 8 hours, mean, fasted dogs): 4060 ng/mL
Mean plasma concentration of Compound I ([4]; 24 hours, mean, fasted dogs): 648 ng/mL
Individual plasma concentration of Compound I ([4]; 36 hours, fasted dogs, listed as Compound I di-tosylate salt): BLQ (4×) and 273 ng/mL
Mean plasma concentration of Compound I ([4]; 36 hours, mean, fasted dogs): 273 ng/mL
Individual plasma concentration of Compound I ([4]; 48 hours, fasted dogs, listed as Compound I di-tosylate salt): BLQ (4×) and 21.5 ng/mL
Mean plasma concentration of Compound I ([4]; 48 hours, mean, fasted dogs): 21.5 ng/mL
tmax ([4]; individual subjects): 2.00 h and 1.00 h
AUC0-last ([4]; mean): 88000 ng·h/mL
AUC0-rt ([4]; mean): 89100 ng·h/mL
Cmax ([4]; mean): 10400 ng/mL
tmax ([4]; mean): 2.00 h
Individual plasma concentration of Compound I ([4]; Pre-dose, fasted pentagastrin-pretreated dogs): BLQ
Mean plasma concentration of Compound I ([4]; Pre-dose, mean, fasted dogs): BLQ
Compound: Cc1ccc(S(=O)(=O)O)cc1.Cc1ccc(S(=O)(=O)O)cc1.Cn1cc(-c2cn(-c3ccc(OC(F)(F)F)cc3)c(=O)c3ncn(C)c23)cn1 [Di-tosylate]
Individual plasma concentration of Compound I ([4]; 0.25 hours, fasted dogs, listed as Compound I di-tosylate salt): 1020 ng/mL and 146 ng/mL and 309 ng/mL and 29.1 ng/mL and 670 ng/mL
Individual plasma concentration of Compound I ([4]; 0.5 hours, fasted dogs, listed as Compound I di-tosylate salt): 7120 ng/mL and 1820 ng/mL and 3500 ng/mL and 636 ng/mL and 2610 ng/mL
Individual plasma concentration of Compound I ([4]; 1 hour, fasted dogs, listed as Compound I di-tosylate salt): 8040 ng/mL and 6510 ng/mL and 9340 ng/mL and 1600 ng/mL and 6140 ng/mL
Individual plasma concentration of Compound I ([4]; 2 hours, fasted dogs, listed as Compound I di-tosylate salt): 8810 ng/mL and 11200 ng/mL and 13400 ng/mL and 1580 ng/mL and 8110 ng/mL
Individual plasma concentration of Compound I ([4]; 4 hours, fasted dogs, listed as Compound I di-tosylate salt): 6820 ng/mL and 10500 ng/mL and 13100 ng/mL and 1040 ng/mL and 6440 ng/mL
Individual plasma concentration of Compound I ([4]; 8 hours, fasted dogs, listed as Compound I di-tosylate salt): 2700 ng/mL and 5620 ng/mL and 5860 ng/mL and 368 ng/mL and 2040 ng/mL
Individual plasma concentration of Compound I ([4]; 24 hours, fasted dogs, listed as Compound I di-tosylate salt): 231 ng/mL and 1800 ng/mL and 530 ng/mL and 35.0 ng/mL and 30.0 ng/mL
AUC0-last ([4]; individual subjects): 62700 ng·h/mL and 129000 ng·h/mL and 113000 ng·h/mL and 9680 ng·h/mL and 47200 ng·h/mL
AUC0-rt ([4]; individual subjects): 64100 ng·h/mL and 129000 ng·h/mL and 116000 ng·h/mL and 9890 ng·h/mL and 47300 ng·h/mL
Cmax ([4]; individual subjects): 8810 ng/mL and 11200 ng/mL and 13400 ng/mL and 1600 ng/mL and 8110 ng/mL

reversibility of water adsorption within the timeframe of observation [5]: not reversible
Solubility (24 hours) [3, 7]: 0.99 mg/mL
pH (24 hrs) [3]: 1.48
pH (1 hr) [3]: 1.42
S 24 hrs [3]: 0.99 mg/mL
S 1 hr [3]: 1.09 mg/mL
Compound: Cn1cc(-c2cn(-c3ccc(OC(F)(F)F)cc3)c(=O)c3ncn(C)c23)cn1.Cn1cc(-c2cn(-c3ccc(OC(F)(F)F)cc3)c(=O)c3ncn(C)c23)cn1.O=S(=O)(O)CCS(=O)(=O)O [hemi-edisylate]

reversibility of water adsorption within the timeframe of observation [5]: not reversible
Solubility (24 hours) [3, 7]: 1.83 mg/mL
pH (24 hrs) [3]: 1.53
pH (1 hr) [3]: 1.53
S 24 hrs [3]: 1.83 mg/mL
S 1 hr [3]: 2.76 mg/mL
Compound: Cn1cc(-c2cn(-c3ccc(OC(F)(F)F)cc3)c(=O)c3ncn(C)c23)cn1.Cn1cc(-c2cn(-c3ccc(OC(F)(F)F)cc3)c(=O)c3ncn(C)c23)cn1.O=S(=O)(O)c1cccc2c(S(=O)(=O)O)cccc12 [hemi-napadisylate]

thermal stability [6]: good thermal stability
Solubility (24 hours) [3, 7]: 1.54 mg/mL
pH (24 hrs) [3]: 1.2
pH (1 hr) [3]: 1.1
S 24 hrs [3]: 1.54 mg/mL
S 1 hr [3]: 1.73 mg/mL
Compound: Cn1cc(-c2cn(-c3ccc(OC(F)(F)F)cc3)c(=O)c3ncn(C)c23)cn1.O=S(=O)(O)O [mono-sulfate crystalline]
